Patent US20210361600A1, “METHODS FOR INDUCING CHONDROGENESIS” (THE SCRIPPS RESEARCH INSTITUTE, priority 2017, published 2021)
Values joined by “and” are separate entries in the source; they are usually repeats but may differ in a detail not shown here. Identical values can stand only once. “Also recorded” adds a separate entry of the source.

Assays:
[1] = test system: Rat Medial Meniscal Tear Model; assay: Dose range study of compound A in a rat medial meniscal tear model; type: in vivo, Lewis rats
Description: The vehicle was prepared separately and then added to aliquots of compound A powder, after which the mixture was vortexed and becomes a clear solution. Dosing solutions were prepared for doses ranging from 30 μM to 0.3 μM. Dosing volume was set to 30 μL/knee. Dosing solutions were prepared fresh for each dose. Dosing solutions were verified at the end of the study. The positive control compound FGF-18 stock was reconstituted in 5 mM Tris, pH 8.0 as per manufacturer's instructions. The FGF-18 stock was further diluted in saline to a final concentration of 0.167 mg/mL. Fresh dilutions were prepared twice a week at the time of injection.
Fourteen-week-old male Lewis rats (Charles River, Kingston, N.Y.) were in the weight range of 285-327 g.
Rats were sorted based on body weight into 8 study groups of 15 rats. They were surgerized and enrolled in a staggered fashion across one week (enroll 20 animals per day for 6 days). Animals were anesthetized with a ketamine/xylazine cocktail (50 mg/kg Ketaved—Henry Schein, and 5 mg/kg Xyalzine AniSed, respectively) by intraperitoneal injection, administered appropriate analgesics (Flunixin, 5 mg/kg subcutaneous injection), and the surgical site shaved and disinfected. A small incision was made on the medial right hind knee to expose the collateral ligament. The collateral ligament was transected and the joint capsule opened sufficiently to expose the medial meniscus. The meniscus was transected completely, then the skin incision was closed, and pressure applied to the wound to prevent hematoma development. Animals were allowed to recover on a heated blanket and were returned to their home cages. Sham procedures were carried out in a similar fashion except the medial meniscus was not cut. All surgical procedures were performed aseptically and all procedures were approved by the IACUC. Animals were monitored daily for the following week for postoperative care prior to dosing. Any animals with atypical healing (bruising/hematoma) were removed from the study and replaced with spare animals. Animals were enrolled into the following groups: […]

[2] = Final dose PK in the canine osteoarthritis study; type: in vivo, Beagle dogs
Description: Acetonitrile, water (Optima, LC/MS Grade) and formic acid, 99+% (Optima, LC/MS Grade) were purchased from Fisher Scientific. […] Chromatography HPLC column, Luna, 5 um C18 (2), 50×2.0 mm and its guard security cartridge and holder were purchased from Phenomenex. HPLC (1100 Series) was purchased from Agilent. The Mass Spectrometer system, API 3000 was purchased from SCIEX. Separation was performed on a reversed phase C18 column with a gradient elution using mobile phases of 0.1% formic acid in water (A) and 0.1% formic acid in acetonitrile (B) with flow rate at 0.6 mL/min.
Supernatant was then diluted with 0.1% formic acid in water solvent and injected onto LC-MS-MS system.
All animals were exercised 5 days a week for an hour for the duration of the study. At study day 10/11, animals began receiving weekly injections of either compound or vehicle into the surgerized joint. Blood samples were also taken pre-dose for all animals for compound determination. Animals received doses at day 10, 17, 24, 31, 38, and 45 post surgery. All intraarticular doses were standardized to 0.5 mL injections into the joint capsule via injection through the patellar ligament.
Female Beagles underwent medial meniscal tear surgery to induce osteoarthritis.

FLNA FC-1 fragment = assay: In vitro FLNA binding (competition with biotin-KGN-azide probe); details: 25 μM compound A, 0.5 μM BKA, FC-1 fragment 10 μg/mL, 1 hr
Source text: The biological mechanism of kartogenin (KGN) was elucidated through synthesis of a biotin-kartogenin-azide (BKA) affinity probe which was used as a tool to identify the subsequent interaction with FLNA.

[3] = Intravenous acute toxicity study in Crl:CD(SD) rat (toxicokinetics); type: in vivo; details: for AUC(0-t) / Cmax / half-life: Crl:CD(SD), rat, plasma; for Tlast: median
Description: For toxicokinetic evaluation, an additional 3 rats/sex/group were added for the 1 or 2.4 mg/kg dose groups. Toxicokinetic parameters were determined, where feasible, by non-compartmental analysis.

in vivo [4] = assay: in vivo; parameters: species or system Crl:CD(SD) rat; details: rat; for half-life: t1/2
in vivo [5] = details: male, beagle, dog, 70 μg/knee/week
in vivo [6] = details: dog, iv; for AUC(0-t): AUC0-t
[7] = Intra-articular acute toxicity study in Crl:CD(SD) rat (toxicokinetics); details: for Tlast: male rats, median
[8] = female Beagles, 35 μg IA weekly, after 6th dose, plasma, individual animals 1-6
[9] = female rats, single IV 1 mg/kg, mean
[10] = female rats, single IV 2.4 mg/kg, mean
[11] = male rats, single IV 1 mg/kg, mean
[12] = male rats, single IV 2.4 mg/kg, mean
[13] = female, Crl:CD(SD), iv, 0.25 mg/kg
[14] = female, Crl:CD(SD), iv, 0.75 mg/kg
[15] = female, Crl:CD(SD), iv, 2.5 mg/kg
[16] = male, Crl:CD(SD), iv, 0.25 mg/kg
[17] = male, Crl:CD(SD), iv, 0.75 mg/kg
[18] = male, Crl:CD(SD), iv, 2.5 mg/kg
[19] = dose increment of 5.7 fold (from 2.1 to 12 μg)
[20] = male, Crl:CD(SD), rat, plasma, 12 ug

In the case of COCCc1ccc(NC(=O)c2ccccc2NS(C)(=O)=O)cc1 [Compound A, N-(4-(2-methoxyethyl)phenyl)-2-(methylsulfonamido)benzamide], the “total joint scores without the femur” value ([1]; 30 μM (0.315 μg/knee) IA once every other week, vs vehicle) is reported as “significantly improved; also recorded: significant improvement”, the “degree of improvement of total joint score compared with positive control” value ([1]; 30 μM dose, FGF-18 5 μg/injection twice a week) is reported as “on par with FGF-18” and the adverse effects ([1]; IA once every other week, any of the doses tested (30, 10, 3, 1, 0.3 μM)) is reported as “no adverse effects”. The “plasma exposure after the final dose” value ([2]; 1 hour after IA administration) was “undetectable”, the Cmax ([2]; female Beagles, 35 μg (0.035 mg/knee) IA weekly, after 6th dose, plasma, individual animals 1-6) was 2.22 ng/mL and 2.64 ng/mL and 1.87 ng/mL and 2.26 ng/mL and 1.08 ng/mL and 1.54 ng/mL and the Tlast ([2]; female Beagles, 35 μg IA weekly, after 6th dose, plasma, Mean) was 2.3 h. The “AUC 0-τ” value [2, 8] was 2.28 ng·h/mL and 3.14 ng·h/mL and 2.12 ng·h/mL and 3.58 ng·h/mL and 1.15 ng·h/mL and 1.87 ng·h/mL, the Tlast [2, 8] was 2.0 h (5×) and 4.0 h and the AUC ([2]; female, beagle, dog, plasma, 0.035 mg/knee, female Beagles, 35 μg IA weekly, after 6th dose, plasma, Mean, read-out: AUC 0-τ) was 2.36 ng·h/mL. For the same compound, the Cmax ([2]; female, beagle, dog, plasma, 0.035 mg/knee, female Beagles, 35 μg IA weekly, after 6th dose, plasma, Mean, read-out: Cmax) was 1.94 ng/mL, the “ability of the biotin-KGN-azide probe to bind to the FC-1 fragment of FLNA” value (FLNA FC-1 fragment) was “inhibited” and the AUC(0-t) [3, 9] was 2900 ng·h/mL. For the same compound, the Cmax [3, 9] was 9190 ng/mL, the half-life [3, 9] was 28.8 min and the Cmax [3, 10] was 9020 ng/mL. The half-life [3, 10] was 31.8 min, the AUC(0-t) ([3]; female rats, single IV 2.4 mg/kg, mean, t = 4 hours) was 5690 ng·h/mL and the AUC(0-t) [3, 11] was 2500 ng·h/mL. The Cmax [3, 11] was 11200 ng/mL, the half-life [3, 11] was 22.2 min and the AUC(0-t) [3, 12] was 4510 ng·h/mL. It also gave a Cmax [3, 12] of 9430 ng/mL, a half-life [3, 12] of 24 min and a half-life ([3]; both sexes, single IV administration, range over groups) of 18 to 36 min. The Tlast ([3]; female rats, single IV 1 mg/kg) was 2 h, the Tlast ([3]; female rats, single IV 2.4 mg/kg) was 4 h and the “mean AUC0-t, higher dose compared to 1 mg/kg” value ([3]; females, single IV) was roughly 2.0 fold. The Tlast ([3]; male rats, single IV 1 mg/kg) was 2 h, the Tlast ([3]; male rats, single IV 2.4 mg/kg) was 2 h and the “mean AUC0-t, higher dose compared to 1 mg/kg” value ([3]; males, single IV) was “approximately 1.8 fold”. For the same compound, the “gender differences in systemic exposure (Cmax and AUC0-t)” value ([3]; single IV, either dosing regimen) was “no notable gender differences”, the “time up to which quantifiable in the plasma of all animals” value (in vivo [4]; both, Crl:CD(SD), iv) was “at least 4 hours” and the AUC(0-t) (in vivo [4]; [13]) was 764 ng·h/mL. The Cmax (in vivo [4]; [13]) was 1380 ng/mL, the t1/2 (in vivo [4]; [13]) was 32.4 min and the AUC(0-t) (in vivo [4]; female, Crl:CD(SD), iv, 0.25 mg/kg, AUC0-t) was 871 ng·h/mL. It also gave a Cmax (in vivo [4]; female, Crl:CD(SD), iv, 0.25 mg/kg, Cmax) of 1230 ng/mL, a half-life (in vivo [4]; [13]) of 34.8 min and an AUC(0-t) (in vivo [4]; [14]) of 1920 ng·h/mL. For the same compound, the Cmax (in vivo [4]; [14]) was 4800 ng/mL, the t1/2 (in vivo [4]; [14]) was 28.8 min and the AUC(0-t) (in vivo [4]; female, Crl:CD(SD), iv, 0.75 mg/kg, AUC0-t) was 2250 ng·h/mL. It also gave a Cmax (in vivo [4]; female, Crl:CD(SD), iv, 0.75 mg/kg, Cmax) of 3490 ng/mL, a half-life (in vivo [4]; [14]) of 35.4 min and a t1/2 (in vivo [4]; [15]) of 43.8 min. The half-life (in vivo [4]; [15]) was 37.8 min, the AUC(0-t) (in vivo [4]; [16]) was 633 ng·h/mL and the Cmax (in vivo [4]; [16]) was 2060 ng/mL. It also gave a t1/2 (in vivo [4]; [16]) of 25.2 min, an AUC(0-t) (in vivo [4]; male, Crl:CD(SD), iv, 0.25 mg/kg, AUC0-t) of 657 ng·h/mL and a Cmax (in vivo [4]; male, Crl:CD(SD), iv, 0.25 mg/kg, Cmax) of 1940 ng/mL. The half-life (in vivo [4]; [16]) was 23.4 min, the AUC(0-t) (in vivo [4]; [17]) was 2160 ng·h/mL and the t1/2 (in vivo [4]; [17]) was 25.8 min. It also gave an AUC(0-t) (in vivo [4]; male, Crl:CD(SD), iv, 0.75 mg/kg, AUC0-t) of 3120 ng·h/mL, a half-life (in vivo [4]; [17]) of 37.8 min and a t1/2 (in vivo [4]; [18]) of 42.6 min. The half-life (in vivo [4]; [18]) was 38.4 min, the “gender differences in mean Cmax and mean AUC0-t” value (in vivo [4]) was “no significant gender differences” and the “differences in systemic exposure following single and repeated IV administration” value (in vivo [4]; iv) was “no significant”. For the same compound, the AUC(0-t) (in vivo [5]) was 13.8 ng·h/mL, the half-life (in vivo [6]; both, beagle) was 38.4 to 55.8 min and the AUC(0-t) (in vivo [6]; female, Beagle, 0.125 mg/kg) was 131 ng·h/mL. It also gave a Cmax (in vivo [6]; female, Beagle, 0.125 mg/kg) of 181 ng/mL, an AUC(0-t) (in vivo [6]; female, Beagle, 0.6 mg/kg) of 1230 ng·h/mL and a Cmax (in vivo [6]; female, Beagle, 0.6 mg/kg) of 1330 ng/mL. For the same compound, the AUC(0-t) (in vivo [6]; female, Beagle, 1.25 mg/kg) was 2150 ng·h/mL, the Cmax (in vivo [6]; female, Beagle, 1.25 mg/kg) was 2460 ng/mL and the Vd (in vivo [6]; female, beagle) was 0.534 to 0.855 L/kg. For the same compound, the clearance (in vivo [6]; female, beagle) was 8.2 to 16.4 mL/min/kg, the AUC(0-t) (in vivo [6]; female, beagle, 0.125 mg/kg) was 178 ng·h/mL and the AUC(0-t) (in vivo [6]; female, beagle, 0.6 mg/kg) was 1200 ng·h/mL. The Vd (in vivo [6]; male, beagle) was 0.44 to 0.692 L/kg, the clearance (in vivo [6]; male, beagle) was 7.25 to 11.4 mL/min/kg and the AUC(0-t) (in vivo [6]; male, beagle, 0.125 mg/kg) was 181 ng·h/mL. It also gave a Cmax (in vivo [6]; male, beagle, 0.125 mg/kg) of 308 ng/mL, an AUC(0-t) (in vivo [6]; male, beagle, 0.6 mg/kg) of 1190 ng·h/mL and a Cmax (in vivo [6]; male, beagle, 0.6 mg/kg) of 2100 ng/mL. For the same compound, the AUC(0-t) (in vivo [6]; male, beagle, 1.25 mg/kg) was 2600 ng·h/mL, the Cmax (in vivo [6]; male, beagle, 1.25 mg/kg) was 2580 ng/mL and the “increase in mean AUC0-t” value [7, 19] was 2 fold. For the same compound, the “increase in mean Cmax” value [7, 19] was 2 fold, the Tlast ([7]; single IA dose 2.1 μg/knee, plasma) was 2.00 h and the Tlast ([7]; single IA dose 12 μg/knee, plasma) was 2.00 h. For the same compound, the AUC(0-t) ([7]; male, Crl:CD(SD), rat, plasma, 2.1 ug) was 12.1 ng·h/mL, the AUC(0-t) [7, 20] was 23.9 ng·h/mL and the Cmax [7, 20] was 27.8 ng/mL.
